Measurements taken from patent US11793779B2, “Hica for use in prophylaxis and/or treatment of a disease or condition involving degradation of cartilage and/or disruption of cartilage homeostasis and/or integrity” (Salarusta Oy, priority 2020, dated 2023).

Columns and labels:
Format in all cases: biochemical
[1] = target: T1, Human recombinant pure MMP-8 (Homo sapiens, UniProt P22894); experiment: MMP-8 mediated DEL-1 fragmentation (SDS-PAGE, silver stain); details: for inhibition of MMP-8 mediated DEL-1 fragmentation: Study A, 4 μl of 10% isomer, overnight at 37° C., FIG. 3A
T1 construct: purchased Proteaimmun 30100702
T1 sequence (P22894 101-467): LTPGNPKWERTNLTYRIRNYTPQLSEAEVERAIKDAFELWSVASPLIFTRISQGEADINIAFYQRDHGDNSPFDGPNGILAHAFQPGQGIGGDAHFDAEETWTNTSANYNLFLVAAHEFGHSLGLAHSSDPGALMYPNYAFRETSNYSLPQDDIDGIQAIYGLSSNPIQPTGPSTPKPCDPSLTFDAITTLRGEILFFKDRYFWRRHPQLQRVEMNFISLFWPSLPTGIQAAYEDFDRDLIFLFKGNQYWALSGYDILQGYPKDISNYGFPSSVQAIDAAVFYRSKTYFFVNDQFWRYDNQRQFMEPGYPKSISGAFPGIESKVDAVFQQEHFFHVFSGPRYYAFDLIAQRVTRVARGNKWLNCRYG
Procedure: The degradation of DEL-1 by MMP-8 was determined similarly as described (DeCarlo 1994, Sorsa, Salo et al. 1997). Human recombinant pure MMP-8 (#30100702, Proteaimmun) was preincubated 1 hour at 37° C. with p-aminophenylmercuric acetate (APMA) and different HICA isomers (D-HICA, #CAS 20312-37-2, Santa Cruz Biotechnology; L-HICA, #219827 Sigma-Aldrich). After which DEL-1 was added as a substrate. That was let incubate overnight at +37° C. Analyzed on […] SDS-PAGE with Silver Stain Pierce®. α-hydroxy-isovaleric acid (HMB). Ilomastat (Ilo). As assay buffer 50 mM Tris-HCl-buffer (TNC): pH 7.5; 0.2 M NaCl; 1.0 mM CaCl2 (Tervahartiala, Ingman et al. 1995). Fragmentation of DEL-1 induced by MMP-8 treated with 1 mM APMA was regarded as 100%. (Sorsa, Salo et al. 1997).
Study A: • 1. 1.7 μl DEL-1 (0.2 μg/μl) • 2. 1 μl MMP-8 (0.1 μg/μl)+5 μl 2 mM APMA+4 μl TNC • 3. 1.7 μl DEL-1 (0.2 μg/μl)+1 μl MMP-8 (0.1 μg/μl)+5 μl 2 mM APMA+4 μl TNC • 4.,5. 1.7 μl DEL-1 (0.2 μg/μl)+1 μl MMP-8 (0.1 μg/μl)+5 μl 2 mM APMA+10% 4 μl D-HICA • 6.,7. 1.7 μl DEL-1 (0.2 μg/μl)+1 μl MMP-8 (0.1 μg/μl)+5 μl 2 mM APMA+10% 4 μl L-HICA • 8.,9. 1.7 μl DEL-1 (0.2 μg/μl)+1 μl MMP-8 (0.1 μg/μl)+5 μl 2 mM APMA+10% 4 μl D-HMB • 10.,11. 1.7 μl DEL-1 (0.2 μg/μl)+1 μl MMP-8 (0.1 μg/μl)+5 μl 2 mM APMA+10% 4 μl L-HMB • 12.,13. 1.7 μl DEL-1 (0.2 μg/μl)+1 μl MMP-8 (0.1 μg/μl)+5 μl 2 mM APMA+4 μl Ilo
Study B: • 1. 1.7 μl DEL-1 (0.2 μg/μl) • 2. 1 μl MMP-8 (0.1 μg/μl)+5 μl 2 mM APMA+4 μl TNC • 3.,4. 1.7 μl DEL-1 (0.2 μg/μl)+1 μl MMP-8 (0.1 μg/μl)+5 μl 2 mM APMA+4 μl TNC • 6.,7. 1.7 μl DEL-1 (0.2 μg/μl)+1 μl MMP-8 (0.1 μg/μl)+7 μl 1.4 mM APMA+2 μl 10% D-HICA • 8.,9.,10. 1.7 μl DEL-1 (0.2 μg/μl)+1 μl MMP-8 (0.1 μg/μl)+5 μl 2 mM APMA+4 μl 10% D-HICA • 11.,12.,13. 1.7 μl DEL-1 (0.2 μg/μl)+1 μl MMP-8 (0.1 μg/μl)+1 μl 10 mM APMA+8 μl 10% D-HICA • 14. 1.7 μl DEL-1 (0.2 μg/μl)+1 μl MMP-8 (0.1 μg/μl)+5 μl 2 mM APMA+4 μl Ilo

[2] = target: T2, recombinant human ADAMTS-5 (Homo sapiens, UniProt Q9UNA0); experiment: ADAMTS-5 mediated break down of aggrecan (SDS-PAGE, silver stain); details: 10% racemic HICA, pH 7.4, incubation 2 d, FIG. 1 line 5
T2 construct: purchased Chemicon International Inc. CC1034
T2 sequence (Q9UNA0 262-930): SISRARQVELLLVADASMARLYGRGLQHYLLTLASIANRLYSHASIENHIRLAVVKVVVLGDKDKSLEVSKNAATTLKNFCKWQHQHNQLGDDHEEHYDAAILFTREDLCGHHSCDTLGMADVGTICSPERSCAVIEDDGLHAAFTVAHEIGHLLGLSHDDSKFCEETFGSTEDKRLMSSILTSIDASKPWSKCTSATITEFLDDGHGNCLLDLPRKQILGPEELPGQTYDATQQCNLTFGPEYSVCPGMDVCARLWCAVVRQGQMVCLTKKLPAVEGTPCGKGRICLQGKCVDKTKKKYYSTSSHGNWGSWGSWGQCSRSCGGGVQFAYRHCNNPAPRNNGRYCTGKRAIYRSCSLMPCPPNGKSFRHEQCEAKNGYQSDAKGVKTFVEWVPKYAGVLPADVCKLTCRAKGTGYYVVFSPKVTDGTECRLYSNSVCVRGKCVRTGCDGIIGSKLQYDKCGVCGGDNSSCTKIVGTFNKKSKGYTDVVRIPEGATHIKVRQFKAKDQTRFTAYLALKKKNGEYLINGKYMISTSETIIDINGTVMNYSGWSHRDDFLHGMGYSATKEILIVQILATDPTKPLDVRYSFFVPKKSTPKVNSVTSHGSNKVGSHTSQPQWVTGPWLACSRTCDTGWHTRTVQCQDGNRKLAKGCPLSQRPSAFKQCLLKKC
Procedure: (§1) As positive inhibitor controls Ilomastat (Ilo, CC1010, Millipore) and chlorhexidine (CHX, Corsodyl®, [2 mg/ml] (GlaxoSmithKline, Brøndby, Denmark) were used and 50 mM Tris-HCl-buffer (TNC): pH 7.5; 0.2 M NaCl; 1.0 mM CaCl2) was used as neutral assay buffer.
(§2) MMP-13 was preincubated 1 hour at 37° C. with p-aminophenylmercuric acetate (APMA, A9563, Sigma-Aldrich) to optimally activate (pro)MMP-13. As substrate, Aggrecan was added and then ADAMTS-5 or activated MMP-13 as catalytic/proteolytic enzyme and TNC, as neutral control, and 10% HICA, CHX or Ilo as protease/MMP-inhibitors let incubated together from 1 hour (h) to 2 days (d). The enzyme reactions terminated by boiling with modified Laemmli buffer. The samples were analysed by 8% SDS-PAGE and after electrophoresis the defragmentation of Aggrecan was visualised using Silver Stain Pierce®.
(§3) Sample with concentrations in lines: • 1. 0.25 μl molecular weight standards. Bio-Rad • 2. 4.2 μl Aggrecan (0.5 μg/μl) • 3. 4 μl ADAMTS-5 (0.1 μg/μl) • 4. 4.2 μl Aggrecan+4 μl ADAMTS-5+6 μl TNC-buffer. inc: 2d • 5. 4.2 μl Aggrecan+4 μl ADAMTS-5+6 μl 10% HICA. inc: 2d • 6. 4.2 μl Aggrecan+4 μl ADAMTS-5+6 μl CHX (2 mg/ml). inc: 2d • 7. 1 μl MMP-13 (0.2 μg/μl)+3 μl 2 mM APMA+6 μl TNC • 8. 4.2 μl Aggrecan+1 μl MMP-13 (0.2 μg/μl)+3 μl 2 mM APMA+6 μl TNC. inc: 1h • 9. 4.2 μl Aggrecan+1 μl MMP-13 (0.2 μg/μl)+3 μl 2 mM APMA+6 μl TNC. inc: 2d • 10. […]

[3] = target: T3, human Matrix metalloproteinase 13 (MMP-13) (Homo sapiens, UniProt P45452); experiment: MMP-13 mediated break down of aggrecan (SDS-PAGE, silver stain); details: 10% racemic HICA, APMA-activated MMP-13, incubation 2 d, FIG. 1 line 11
T3 construct: purchased BioTeZ, Berlin-Buch, Berlin, Germany 30100802
Procedure: as §1, §2, §3

| inhibition of MMP-8 mediated DEL-1 fragmentation [1] | dose dependence of inhibition of MMP-8 mediated DEL-1 fragmentation ([1]; Study B, 2, 4 and 8 μl of 10% D-HICA, FIG. 3B) | inhibition of break down of Aggrecan by ADAMTS-5 [2] | inhibition of break down of Aggrecan by MMP-13 [3] | Compound |
| --- | --- | --- | --- | --- |
| able to prevent fragmentation of DEL-1 | inhibit MMP-8 dose-dependently | – | – | CC(C)C[C@@H](O)C(=O)O [D-HICA] |
| able to prevent fragmentation of DEL-1 | – | – | – | CC(C)C[C@H](O)C(=O)O [L-HICA] |
| – | – | prevent enzyme activity | prevent enzyme activity | [H]/N=C(\N/C(=N/[H])NCCCCCCNC(=N)NC(=N)Nc1ccc(Cl)cc1)Nc1ccc(Cl)cc1 [chlorhexidine, reference compound] |
